Non-standard residues stand in square brackets, D forms with d. Residues, ends and D or L forms follow the SMILES beside them. No end group written: not given here. 1Nal = N[C@@H](Cc1cccc2ccccc12)C(=O)O; Aib = CC(C)(N)C(=O)O
Legend:
[1] = target: T1, LCAT (purified from human plasma) (Homo sapiens, UniProt P04180); experiment: LCAT activation assay; format: biochemical; conditions: LCAT activation as compared with native human ApoA-I (= 100%), equivalent masses
T1 construct: from tissue; host or cells: human plasma
T1 sequence (P04180 25-440): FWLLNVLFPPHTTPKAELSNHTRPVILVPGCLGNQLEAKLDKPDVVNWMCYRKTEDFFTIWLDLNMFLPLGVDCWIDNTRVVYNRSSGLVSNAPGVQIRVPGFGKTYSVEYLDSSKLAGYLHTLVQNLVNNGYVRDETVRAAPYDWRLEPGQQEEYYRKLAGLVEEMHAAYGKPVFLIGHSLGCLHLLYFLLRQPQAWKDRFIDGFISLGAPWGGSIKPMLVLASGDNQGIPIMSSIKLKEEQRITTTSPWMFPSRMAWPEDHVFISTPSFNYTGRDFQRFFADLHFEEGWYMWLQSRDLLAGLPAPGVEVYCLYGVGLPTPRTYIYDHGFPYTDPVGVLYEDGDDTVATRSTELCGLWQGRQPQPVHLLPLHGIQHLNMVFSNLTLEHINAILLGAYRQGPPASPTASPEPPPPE
Outline: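 Substrate SUVs of EPC or POPC with 14C-cholesterol (20:1 molar ratio), in 10 mM Tris, 0.14 M NaCl, 1 mM EDTA, pH 7.4, were preincubated with peptide or equal mass of plasma ApoA-I. Reaction started with human plasma LCAT; activation was measured as cholesterol-to-ester conversion relative to ApoA-I (100%).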

[2] = Circular dichroism helicity determination; format: physicochemical; conditions: percent helicity; for He (%) TFE: 5 μM peptide, 90% vol TFE; for He (%) TFE / He (%) SUVs: 37° C.; for He (%) free: unbound peptide 5 μM in 5 mM phosphate buffer, pH 7.4, 37° C.; for He (%) SUVs: peptide-SUV complexes (20:1 EPC:Chol., Ri=30 and Ri=50); for He (%) mics: peptide-micelle complexes, Ri=100, 37° C.
Outline: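 Far-UV CD (190–260 nm) at 37° C on 5 μM peptide in 5 mM phosphate pH 7.4, free, with EPC:Chol 20:1 SUVs (Ri 30 or 50), lysophosphatidylcholine micelles (Ri 100) or 90% TFE. Spectra converted to molar ellipticity per residue; helicity from 222 nm ellipticity or CONTIN fitting to reference spectra, ±5%.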

Compound: CC(C)C[C@H](NC(=O)[C@H](C)NC(=O)[C@H](CCC(=O)O)NC(=O)[C@H](Cc1cccc2ccccc12)NC(=O)[C@H](CC(C)C)NC(=O)[C@H](CCC(=O)O)NC(=O)[C@H](CC(N)=O)NC(=O)[C@H](CC(C)C)NC(=O)[C@H](CC(C)C)NC(=O)[C@H](CCC(=O)O)NC(=O)[C@H](CCCNC(=N)N)NC(=O)[C@H](Cc1ccccc1)NC(=O)[C@H](CC(C)C)NC(=O)[C@H](CC(=O)O)NC(=O)[C@H](CC(C)C)NC(=O)[C@@H](NC(=O)[C@@H]1CCCN1)C(C)C)C(=O)N[C@@H](CCCCN)C(=O)N[C@@H](CCC(N)=O)C(=O)N[C@@H](CCCCN)C(=O)N[C@@H](CC(C)C)C(=O)N[C@@H](CCCCN)C(=O)O [compound 27, PVLDLFRELLNELZEALKQKLK] (H-PVLDLFRELLNEL[1Nal]EALKQKLK-OH)
- ACTIVITY (%) LCAT [1]: 44%
- He (%) TFE [2]: 81%
- He (%) free [2]: 72%
- He (%) SUVs [2]: 82%
- He (%) mics [2]: 92%

Compound: CC(C)C[C@H](NC(=O)[C@H](C)NC(=O)[C@H](CC(=O)O)NC(=O)[C@H](CC(C)C)NC(=O)[C@H](CC(C)C)NC(=O)[C@H](CCCNC(=N)N)NC(=O)[C@H](CCC(=O)O)NC(=O)[C@H](CC(C)C)NC(=O)[C@H](CC(C)C)NC(=O)[C@H](CC(N)=O)NC(=O)[C@H](CCC(=O)O)NC(=O)[C@H](Cc1ccccc1)NC(=O)[C@H](CC(C)C)NC(=O)[C@H](CCC(=O)O)NC(=O)[C@H](CC(C)C)NC(=O)[C@@H](NC(=O)[C@H]1CCCN1)C(C)C)C(=O)N[C@@H](CCC(N)=O)C(=O)N[C@@H](CCCCN)C(=O)N[C@@H](CCCCN)C(=O)N[C@@H](CC(C)C)C(=O)N[C@@H](CCCCN)C(=O)O [peptide 144] (H-[dP]VLELFENLLERLLDALQKKLK-OH)
- ACTIVITY (%) LCAT [1]: 111%
- He (%) TFE [2]: 95%
- He (%) free [2]: 89%
- He (%) mics [2]: 88%

Compound: CC(C)C[C@@H](NC(=O)[C@@H](C)NC(=O)[C@@H](CCC(=O)O)NC(=O)[C@@H](CC(C)C)NC(=O)[C@@H](CC(C)C)NC(=O)[C@@H](CCC(=O)O)NC(=O)[C@@H](CC(N)=O)NC(=O)[C@@H](CC(C)C)NC(=O)[C@@H](CC(C)C)NC(=O)[C@@H](CCC(=O)O)NC(=O)[C@@H](CCCNC(=N)N)NC(=O)[C@@H](Cc1ccccc1)NC(=O)[C@@H](CC(C)C)NC(=O)[C@@H](CC(=O)O)NC(=O)[C@@H](CC(C)C)NC(=O)[C@H](NC(=O)[C@H]1CCCN1)C(C)C)C(=O)N[C@H](CCCCN)C(=O)N[C@H](CCC(N)=O)C(=O)N[C@H](CCCCN)C(=O)N[C@H](CC(C)C)C(=O)N[C@H](CCCCN)C(=O)O [compound 100, pvldlfrellnellealkqklk]
- ACTIVITY (%) LCAT [1]: 2%
- He (%) TFE [2]: 98%
- He (%) free [2]: 83%
- He (%) mics [2]: 92%

Compound: CC(C)C[C@H](NC(=O)[C@H](C)NC(=O)[C@H](CCC(=O)O)NC(=O)[C@H](CC(C)C)NC(=O)C(C)(C)NC(=O)[C@H](CCC(=O)O)NC(=O)[C@H](CC(N)=O)NC(=O)[C@H](CC(C)C)NC(=O)[C@H](CC(C)C)NC(=O)[C@H](CCC(=O)O)NC(=O)[C@H](CCCNC(=N)N)NC(=O)[C@H](Cc1ccccc1)NC(=O)[C@H](Cc1ccccc1)NC(=O)[C@H](CC(=O)O)NC(=O)[C@H](CC(C)C)NC(=O)[C@@H](NC(=O)[C@@H]1CCCN1)C(C)C)C(=O)N[C@@H](CCCCN)C(=O)N[C@@H](CCC(N)=O)C(=O)N[C@@H](CCCCN)C(=O)N[C@@H](CC(C)C)C(=O)N[C@@H](CCCCN)C(=O)O [peptide 25, PVLDFFRELLNEXLEALKQKLK] (H-PVLDFFRELLNE[Aib]LEALKQKLK-OH)
- ACTIVITY (%) LCAT [1]: 51%
- He (%) TFE [2]: 93%
- He (%) free [2]: 46%
- He (%) mics [2]: 82%

Compound: Ac-EWLKAFYEKVLEKLKELF-NH2 [peptide 238, reference compound]
- ACTIVITY (%) LCAT [1]: 19%
- He (%) TFE [2]: 58%
- He (%) free [2]: 49%
- He (%) SUVs [2]: 60%
- He (%) mics [2]: 72%

Compound: PVLELFENLLERLGDALQKKLK [peptide 148]
- ACTIVITY (%) LCAT [1]: 75%
- He (%) TFE [2]: 80%
- He (%) free [2]: 10%
- He (%) SUVs [2]: 23%
- He (%) mics [2]: 76%

Compound: CC(C)C[C@H](NC(=O)[C@H](C)NC(=O)[C@H](CCC(=O)O)NC(=O)[C@H](CC(C)C)NC(=O)C(C)(C)NC(=O)[C@H](CCC(=O)O)NC(=O)[C@H](CC(N)=O)NC(=O)[C@H](CC(C)C)NC(=O)[C@H](CC(C)C)NC(=O)[C@H](CCC(=O)O)NC(=O)[C@H](CCCNC(=N)N)NC(=O)[C@H](Cc1ccccc1)NC(=O)[C@H](CC(C)C)NC(=O)[C@H](CC(=O)O)NC(=O)[C@H](CC(C)C)NC(=O)[C@@H](NC(=O)[C@@H]1CCCN1)C(C)C)C(=O)N[C@@H](CCCCN)C(=O)N[C@@H](CCC(N)=O)C(=O)N[C@@H](CCCCN)C(=O)N[C@@H](CC(C)C)C(=O)N[C@@H](CCCCN)C(=O)O [compound 6, PVLDLFRELLNEXLEALKQKLK] (H-PVLDLFRELLNE[Aib]LEALKQKLK-OH)
- ACTIVITY (%) LCAT [1]: 80%
- He (%) TFE [2]: 99%
- He (%) free [2]: 57%
- He (%) SUVs [2]: 70%
- He (%) mics [2]: 93%

Compound: PVLDLFRELWNELLEALKQKLK [peptide 15]
- ACTIVITY (%) LCAT [1]: 60%
- He (%) TFE [2]: 68%
- He (%) free [2]: 55%
- He (%) SUVs [2]: 64%
- He (%) mics [2]: 60%

Compound: PVLDLFRELLELLKQKLK [compound 217]
- ACTIVITY (%) LCAT [1]: 30%
- He (%) TFE [2]: 70%
- He (%) free [2]: 52%
- He (%) SUVs [2]: 76%
- He (%) mics [2]: 78%

Compound: PLLNELLEALKQKLK [compound 104]
- ACTIVITY (%) LCAT [1]: 1%
- He (%) TFE [2]: 55%
- He (%) free [2]: 21%
- He (%) SUVs [2]: 29%
- He (%) mics [2]: 49%

Compound: CC(C)C[C@H](NC(=O)[C@H](CCCCN)NC(=O)[C@H](CCC(N)=O)NC(=O)[C@H](CCCCN)NC(=O)[C@H](Cc1c[nH]c2ccccc12)NC(=O)[C@H](C)NC(=O)[C@H](CCC(=O)O)NC(=O)[C@H](CC(C)C)NC(=O)C(C)(C)NC(=O)[C@H](CCC(=O)O)NC(=O)[C@H](CC(N)=O)NC(=O)[C@H](CC(C)C)NC(=O)[C@H](CC(C)C)NC(=O)[C@H](CCC(=O)O)NC(=O)[C@H](CCCNC(=N)N)NC(=O)[C@H](Cc1ccccc1)NC(=O)[C@H](CC(C)C)NC(=O)[C@H](CC(=O)O)NC(=O)[C@H](CC(C)C)NC(=O)[C@@H](NC(=O)[C@@H]1CCCN1)C(C)C)C(=O)N[C@@H](CCCCN)C(=O)O [compound 38, PVLDLFRELLNEXLEAWKQKLK] (H-PVLDLFRELLNE[Aib]LEAWKQKLK-OH)
- ACTIVITY (%) LCAT [1]: 29%
- He (%) TFE [2]: 49%
- He (%) free [2]: 25%
- He (%) SUVs [2]: 21%
- He (%) mics [2]: 49%

Compound: PVLDLFRELLNELLEALKQ [compound 60]
- ACTIVITY (%) LCAT [1]: 16%
- He (%) TFE [2]: 84%
- He (%) free [2]: 39%
- He (%) SUVs [2]: 66%
- He (%) mics [2]: 83%

Compound: PVLDEFREKLNEALEALKQKLK [peptide 94, reference compound]
- ACTIVITY (%) LCAT [1]: 5%
- He (%) TFE [2]: 63%
- He (%) free [2]: 18%
- He (%) SUVs [2]: 27%
- He (%) mics [2]: 70%

Compound: PVLELFENLLERLLDAWQKKLK [compound 164]
- ACTIVITY (%) LCAT [1]: 24%
- He (%) TFE [2]: 61%
- He (%) free [2]: 37%
- He (%) SUVs [2]: 51%
- He (%) mics [2]: 66%
